What was measured:
Type in all cases: in vivo
[1] = test system: Polygonum convolvulus (POLCO); assay: Post-emergence herbicidal action, greenhouse pot test
In short: (§1)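 Greenhouse-grown weeds in sandy loam were sprayed post-emergence at the one-leaf stage, 2–3 weeks after sowing. Compounds were formulated as WP or EC in water with 0.5% additive at 600 l/ha, at rates of 20 g/ha or less. Visual rating after about 3 weeks used a scale from 0% (like untreated control) to 100% (plants dead).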

[2] = test system: Pharbitis purpurea (PHBPU); assay: as above
In short: as §1

[3] = test system: Abutilon theophrasti (ABUTH); assay: as above; settings: rated visually after about 3 weeks vs untreated controls, 100% = plants have died
In short: as §1

[4] = test system: Amaranthus retroflexus (AMARE); assay: as above; settings: rated visually after about 3 weeks vs untreated controls, 100% = plants have died
In short: as §1

Lolium rigidum (LOLRI) = assay: as above; settings: dosage 20 g/ha
In short: as §1

Avena fatua (AVEFA) = assay: as above; settings: 20 g/ha, rated visually after about 3 weeks vs untreated controls, 100% = plants have died
In short: as §1

Viola tricolor (VIOTR) = assay: as above
In short: as §1

Veronica persica (VERPE) = assay: as above
In short: as §1

Oryza sativa (ORYSA) = assay: Post-emergence crop plant compatibility, greenhouse pot test (also comparative test C); settings: vs untreated controls
In short: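 Rice and other crops sprayed post-emergence at one-leaf stage (2–3 weeks after sowing) with WP or EC formulations plus 0.5% additive at 600 l/ha water. Visual rating about 3 weeks later versus untreated controls (100% = dead, 0% = like control); suffixes a–c denote different doses.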

Zea mays (ZEAMX) = assay: Post-emergence crop plant compatibility, greenhouse pot test; settings: 1.25 g/ha, vs untreated controls
In short: (§2)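 Seeds are sown in sandy loam and grown under controlled greenhouse conditions. At the one-leaf stage (2–3 weeks), foliage is sprayed with the formulated compound in water containing 0.5% additive at 600 l/ha. About 3 weeks later, injury is rated visually in % against untreated plants.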

[5] = test system: Triticum aestivum (TRZAS); assay: as above; settings: vs untreated controls
In short: as §2

[6] = test system: Matricaria inodora (MATIN); assay: Post-emergence herbicidal action, greenhouse pot test (also comparative test C)
In short: (§3)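 Greenhouse pot plants in sandy loam were sprayed post-emergence at the one-leaf stage (2–3 weeks after sowing) with WP or EC formulations plus 0.5% additive at 600 l/ha water. Activity was rated visually after about 3 weeks versus untreated controls (100% = dead, 0% = like control); rates were 20 g/ha or less, and 5 g/ha or less in the comparative test.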

Setaria viridis (SETVI) = assay: as above; settings: for Post-emergence action against SETVI: 20 g/ha
In short: as §3

[7] = test system: Echinochloa crus-galli (ECHCG); assay: as above; settings: for Post-emergence action at 1.25 g/ha against ECHCG in %: rated visually after about 3 weeks vs untreated controls, 100% = plants have died
In short: as §3

[8] = test system: Alopecurus myosuroides (ALOMY); assay: as above; settings: rated visually after about 3 weeks vs untreated controls, 100% = plants have died
In short: as §3

| Post-emergence action against ORYSA (crop plant compatibility) (Oryza sativa (ORYSA); 1.25 g/ha) [%] | Compound | Post-emergence action against POLCO in % ([1]; dosage 5 g/ha) [%] | Post-emergence action against POLCO in % ([1]; dosage 20 g/ha) [%] | Post-emergence action against PHBPU in % ([2]; dosage 1.25 g/ha) [%] | Post-emergence action against PHBPU in % ([2]; dosage 5 g/ha) [%] | Post-emergence action against PHBPU in % ([2]; dosage 20 g/ha) [%] | Post-emergence action at 1.25 g/ha against ABUTH in % [3] [%] | Post-emergence action at 5 g/ha against ABUTH in % [3] [%] | Post-emergence action at 20 g/ha against ABUTH in % [3] [%] | Post-emergence action at 1.25 g/ha against AMARE in % [4] [%] | Post-emergence action at 5 g/ha against AMARE in % [4] [%] | Post-emergence action at 20 g/ha against AMARE in % [4] [%] | Post-emergence action against LOLRI in % (Lolium rigidum (LOLRI)) [%] | Post-emergence action at 20 g/ha against AVEFA in % (Avena fatua (AVEFA)) [%] | Post-emergence action against VIOTR (Viola tricolor (VIOTR); 1.25 g/ha) [%] | Post-emergence action against VIOTR (Viola tricolor (VIOTR); 5 g/ha) [%] | Post-emergence action against VIOTR (Viola tricolor (VIOTR); 20 g/ha) [%] | Post-emergence action against VERPE (Veronica persica (VERPE); 1.25 g/ha) [%] | Post-emergence action against VERPE (Veronica persica (VERPE); 5 g/ha) [%] | Post-emergence action against VERPE (Veronica persica (VERPE); 20 g/ha) [%] | other results |
| --- | --- | --- | --- | --- | --- | --- | --- | --- | --- | --- | --- | --- | --- | --- | --- | --- | --- | --- | --- | --- | --- |
| 0 | Cn1c(C(F)(F)F)cc(=O)n(-c2cc(Oc3ccccc3OCC(=O)OCC3CCOC3)c(Cl)cc2F)c1=O (centres unmarked) [I.7-72] | 100 | 100 | 100 | 100 | 100 | 100 | 100 | 100 | 100 | 100 | 100 | 80 | 100 | 100 | 100 | 100 | 90 | 100 | 100 | Post-emergence action against POLCO in % ([1]; dosage 1.25 g/ha): 80%; Post-emergence action against ZEAMX (crop plant compatibility) (Zea mays (ZEAMX)): 20%; Post-emergence action against TRZAS (crop plant compatibility) ([5]; 1.25 g/ha): 10%; Post-emergence action against MATIN in % ([6]; dosage 5 g/ha): 100%; Post-emergence action against MATIN in % ([6]; dosage 20 g/ha): 100%; Post-emergence action against SETVI (Setaria viridis (SETVI)): 100%; Post-emergence action against SETVI in % (Setaria viridis (SETVI); dosage 1.25 g/ha): 100%; Post-emergence action against SETVI in % (Setaria viridis (SETVI); dosage 5 g/ha): 100%; Post-emergence action at 1.25 g/ha against ECHCG in % [7]: 80%; Post-emergence action against ECHCG in % ([7]; dosage 5 g/ha): 100%; Post-emergence action against ECHCG in % ([7]; dosage 20 g/ha): 100%; Post-emergence action at 20 g/ha against ALOMY in % [8]: 100% |
| 0 | Cn1c(C(F)(F)F)cc(=O)n(-c2cc(Oc3ccccc3OCC(=O)OCCC#N)c(Cl)cc2F)c1=O [I.7-179] | 100 | 100 | 100 | 100 | 100 | 100 | 100 | 100 | 100 | 100 | 100 | 100 | 80 | 100 | 100 | 100 | 100 | 100 | 100 | Post-emergence action against ZEAMX (crop plant compatibility) (Zea mays (ZEAMX)): 0%; Post-emergence action against TRZAS (crop plant compatibility) ([5]; 1.25 g/ha): 0%; Post-emergence action against TRZAS (crop plant compatibility) ([5]; 5 g/ha): 0%; Post-emergence action against MATIN in % ([6]; dosage 1.25 g/ha): 80%; Post-emergence action against MATIN in % ([6]; dosage 5 g/ha): 100%; Post-emergence action against MATIN in % ([6]; dosage 20 g/ha): 100%; Post-emergence action against SETVI (Setaria viridis (SETVI)): 100%; Post-emergence action against SETVI in % (Setaria viridis (SETVI); dosage 1.25 g/ha): 100%; Post-emergence action against SETVI in % (Setaria viridis (SETVI); dosage 5 g/ha): 100%; Post-emergence action against ECHCG in % ([7]; dosage 5 g/ha): 100%; Post-emergence action against ECHCG in % ([7]; dosage 20 g/ha): 100%; Post-emergence action at 20 g/ha against ALOMY in % [8]: 100% |
| 0 | Cn1c(C(F)(F)F)cc(=O)n(-c2cc(Oc3ccccc3OCC(=O)OCc3ccncc3)c(Cl)cc2F)c1=O [I.7-278] | 80 | 100 | 100 | 100 | 100 | 100 | 100 | 100 | 100 | 100 | 100 | 80 | 80 | 90 | 100 | 100 | 100 | 100 | 100 | Post-emergence action against ZEAMX (crop plant compatibility) (Zea mays (ZEAMX)): 0%; Post-emergence action against MATIN in % ([6]; dosage 5 g/ha): 80%; Post-emergence action against MATIN in % ([6]; dosage 20 g/ha): 100%; Post-emergence action against SETVI (Setaria viridis (SETVI)): 100%; Post-emergence action against SETVI in % (Setaria viridis (SETVI); dosage 1.25 g/ha): 100%; Post-emergence action against SETVI in % (Setaria viridis (SETVI); dosage 5 g/ha): 100%; Post-emergence action at 1.25 g/ha against ECHCG in % [7]: 80%; Post-emergence action against ECHCG in % ([7]; dosage 5 g/ha): 100%; Post-emergence action against ECHCG in % ([7]; dosage 20 g/ha): 100%; Post-emergence action at 5 g/ha against ALOMY in % [8]: 90%; Post-emergence action at 20 g/ha against ALOMY in % [8]: 100% |
| 0 | CCOCCOC(=O)COc1ccccc1Oc1cc(-n2c(=O)cc(C(F)(F)F)n(C)c2=O)c(F)cc1Br [I.8-2] | 100 | 100 | 100 | 100 | 100 | 100 | 100 | 100 | 100 | 100 | 100 | 90 | 100 | 100 | 100 | 100 | 100 | 100 | 100 | Post-emergence action against ORYSA (crop plant compatibility) (Oryza sativa (ORYSA); 5 g/ha): 0%; Post-emergence action against ZEAMX (crop plant compatibility) (Zea mays (ZEAMX)): 20%; Post-emergence action against MATIN in % ([6]; dosage 1.25 g/ha): 100%; Post-emergence action against MATIN in % ([6]; dosage 5 g/ha): 100%; Post-emergence action against MATIN in % ([6]; dosage 20 g/ha): 100%; Post-emergence action against SETVI (Setaria viridis (SETVI)): 100%; Post-emergence action against SETVI in % (Setaria viridis (SETVI); dosage 1.25 g/ha): 100%; Post-emergence action against SETVI in % (Setaria viridis (SETVI); dosage 5 g/ha): 100%; Post-emergence action against ECHCG in % ([7]; dosage 5 g/ha): 100%; Post-emergence action against ECHCG in % ([7]; dosage 20 g/ha): 100%; Post-emergence action at 1.25 g/ha against ALOMY in % ([8]; 1.25 g/ha): 80%; Post-emergence action at 5 g/ha against ALOMY in % [8]: 100%; Post-emergence action at 20 g/ha against ALOMY in % [8]: 100% |
